Reference: US20260000076A1, “ANTIMICROBIAL COMBINATIONS” (Clariant International Ltd, priority 2022, published 2026)

Columns and labels:
Type in all cases: cell-based
[1] = tested on: Burkholderia cepacia (B) DSM 7288; assay: Minimum inhibitory concentration (MIC), agar dilution; details: DSM7288, Caso-Agar, pH 7 (+/−0.2)
Experimental: (§1) The antimicrobial properties of Velsan Flex, CHA and a combination of both against bacteria, yeast and mold were investigated: For testing the inhibition of bacteria, Velsan Flex, CHA or a combination of both was diluted in 1,2-propanediol and added in different concentrations to liquid Caso-Agar at 50° C. and was buffered to pH 7 (+/−0.2). For testing the inhibition of yeast and mold, Velsan Flex, CHA or a combination of both was diluted in 1,2-propanediol and added in different concentrations to liquid Sabouraud-4% Dextrose-Agar at 50° C. and was buffered to pH 5.6 (+/−0.2). Each of the solutions was poured into a petri-dish and inoculated with the same amount of bacteria, yeast or mold respectively. The minimum inhibitory concentration (MIC) is the lowest concentration of the respective composition that inhibits the growth of the respective microorganism where the next lowest dilution fails to inhibit the growth of said microorganism. The experiments were carried out in scientifically fair conditions so that a proper comparison could be made and conclusions drawn.

[2] = tested on: Staphylococcus aureus (B) DSM 799; assay: as above; details: DSM799, Caso-Agar, pH 7 (+/−0.2)
Experimental: as §1

[3] = tested on: Candida albicans (Y) DSM 1386; assay: as above; details: DSM1386, Sabouraud-4% Dextrose-Agar, pH 5.6 (+/−0.2)
Experimental: as §1

[4] = tested on: Aspergillus terreus (M) IMI 45543; assay: as above; details: Sabouraud-4% Dextrose-Agar, pH 5.6 (+/−0.2)
Experimental: as §1

[5] = tested on: Klebsiella pneumoniae (B) DSM 786; assay: as above; details: DSM786, Caso-Agar, pH 7 (+/−0.2)
Experimental: as §1

[6] = tested on: Enterobacter aerogenes (B) NCIMB 10102; assay: as above; details: Klebsiella aerogenes, NCIMB10102; Caso-Agar, pH 7 (+/−0.2)
Experimental: as §1

[7] = tested on: Candida parapsilosis (Y) DSM 5784; assay: as above; details: Lodderomyces parapsilosis, DSM5784; Sabouraud-4% Dextrose-Agar, pH 5.6 (+/−0.2)
Experimental: as §1

[8] = tested on: Escherichia coli (B) DSM 682; assay: as above; details: DSM682, Caso-Agar, pH 7 (+/−0.2)
Experimental: as §1

[9] = tested on: Aspergillus brasiliensis (M) DSM 1988; assay: as above; details: DSM1988, Sabouraud-4% Dextrose-Agar, pH 5.6 (+/−0.2)
Experimental: as §1

[10] = tested on: Serratia marcescens (B) BAM 491; assay: as above; details: Caso-Agar, pH 7 (+/−0.2)
Experimental: as §1

[11] = tested on: Pseudomonas aeruginosa (B) DSM 1128; assay: as above; details: DSM1128, Caso-Agar, pH 7 (+/−0.2)
Experimental: as §1

[12] = tested on: Pseudomonas aeruginosa, Staphylococcus aureus, Escherichia coli, Candida albicans and Aspergillus brasiliensis; assay: Challenge test, overall result over all test germs; design: key: An A-criteria is related to an excellent protection of a formulation; B-criteria is needed to show sufficient protection but additional risk eliminating measures related to packaging and raw material quality need to be applied; With an F-criteria for any of the organism tested the whole challenge test is failed and the preservation/protection of the formulation is not sufficient; details: for Challenge test Overall result: Example 2B, CHA 0.1%, Velsan SC 0.9%, Velsan CGE 0.9%
Source text: (§2) Following examples show challenge test results that were done according to EUROPEAN PHARMACOPOEIA 10TH EDITION. Chapter 5.1.3. As representative microorganisms the following test germs were used: Pseudomonas aeruginosa (gram-negative organism, short “P.a.”), Staphylococcus aureus (gram-positive organism, short “S.a.”), Escherichia coli (gram negative organism, short “E.c.”), Candida albicans (yeast, short “C.a.”) and Aspergillus brasiliensis (mold, short “A.b.”).
(§3) The A criteria express the recommended efficacy to be achieved. In justified cases where the A criteria cannot be attained, for example for reasons of an increased risk of adverse reactions, the B criteria must be satisfied. An A-criteria is related to an excellent protection of a formulation, B-criteria is needed to show sufficient protection but additional risk eliminating measures related to packaging and raw material quality need to be applied. With an F-criteria for any of the organism tested the whole challenge test is failed and the preservation/protection of the formulation is not sufficient.
(§4) As a reference an unpreserved sample of the respective formulation was tested as well.
(§5) As a test system a difficult to preserve formulation was used: […]
(§6) As a Test System the Following Formulation was Used: […]

[13] = tested on: Pseudomonas aeruginosa; assay: Challenge test (European Pharmacopoeia 10th Edition, Chapter 5.1.3) in leave-on O/W-cream gel; design: key: An A-criteria is related to an excellent protection of a formulation; B-criteria is needed to show sufficient protection but additional risk eliminating measures related to packaging and raw material quality need to be applied; With an F-criteria for any of the organism tested the whole challenge test is failed and the preservation/protection of the formulation is not sufficient; details: for Challenge test result Pseudomonas aeruginosa: Example 2B, CHA 0.1%, Velsan SC 0.9%, Velsan CGE 0.9%; for Challenge test result P.a.: Example 2A, Velsan Flex 1.35%, CHA 0.15%
Source text: as §2, §3, §4, §5, §6

[14] = tested on: Staphylococcus aureus; assay: as above; design: key: An A-criteria is related to an excellent protection of a formulation; B-criteria is needed to show sufficient protection but additional risk eliminating measures related to packaging and raw material quality need to be applied; With an F-criteria for any of the organism tested the whole challenge test is failed and the preservation/protection of the formulation is not sufficient; details: for Challenge test result Staphylococcus aureus: Example 2B, CHA 0.1%, Velsan SC 0.9%, Velsan CGE 0.9%; for Challenge test result S.a.: Example 2A, Velsan Flex 1.35%, CHA 0.15%
Source text: as §2, §3, §4, §5, §6

[15] = tested on: Aspergillus brasiliensis; assay: as above; design: key: An A-criteria is related to an excellent protection of a formulation; B-criteria is needed to show sufficient protection but additional risk eliminating measures related to packaging and raw material quality need to be applied; With an F-criteria for any of the organism tested the whole challenge test is failed and the preservation/protection of the formulation is not sufficient; details: for Challenge test result Aspergillus brasiliensis: Example 2B, CHA 0.1%, Velsan SC 0.9%, Velsan CGE 0.9%; for Challenge test result A.b.: Example 2A, Velsan Flex 1.35%, CHA 0.15%
Source text: as §2, §3, §4, §5, §6

[16] = tested on: Candida albicans; assay: as above; design: key: An A-criteria is related to an excellent protection of a formulation; B-criteria is needed to show sufficient protection but additional risk eliminating measures related to packaging and raw material quality need to be applied; With an F-criteria for any of the organism tested the whole challenge test is failed and the preservation/protection of the formulation is not sufficient; details: for Challenge test result Candida albicans: Example 2B, CHA 0.1%, Velsan SC 0.9%, Velsan CGE 0.9%; for Challenge test result C.a.: Example 2A, Velsan Flex 1.35%, CHA 0.15%
Source text: as §2, §3, §4, §5, §6

[17] = tested on: Escherichia coli; assay: as above; design: key: An A-criteria is related to an excellent protection of a formulation; B-criteria is needed to show sufficient protection but additional risk eliminating measures related to packaging and raw material quality need to be applied; With an F-criteria for any of the organism tested the whole challenge test is failed and the preservation/protection of the formulation is not sufficient; details: for Challenge test result Escherichia coli: Example 2B, CHA 0.1%, Velsan SC 0.9%, Velsan CGE 0.9%; for Challenge test result E.c.: Example 2A, Velsan Flex 1.35%, CHA 0.15%
Source text: as §2, §3, §4, §5, §6

Molecule | Challenge test Overall result ([12]; pH 5) | Challenge test Overall result ([12]; pH 7) | Challenge test result Pseudomonas aeruginosa ([13]; pH 5) | Challenge test result Pseudomonas aeruginosa ([13]; pH 7) | Challenge test result Staphylococcus aureus ([14]; pH 5) | Challenge test result Staphylococcus aureus ([14]; pH 7) | Challenge test result Aspergillus brasiliensis ([15]; pH 5) | Challenge test result Aspergillus brasiliensis ([15]; pH 7) | Challenge test result Candida albicans ([16]; pH 5) | Challenge test result Candida albicans ([16]; pH 7) | Challenge test result Escherichia coli ([17]; pH 5) | Challenge test result Escherichia coli ([17]; pH 7) | other results
CCCCCCCC(=O)NO [10% CHA solution, Caprylhydroxamic acid] | – | – | – | – | – | – | – | – | – | – | – | – | MIC [1]: 3000 µg/mL; MIC [2]: 8000 µg/mL; MIC [3]: 2000 µg/mL; MIC [4]: 2000 µg/mL; MIC [5]: 3000 µg/mL; MIC [6]: 6000 µg/mL; MIC [7]: 2000 µg/mL; MIC [8]: 5000 µg/mL; MIC [9]: 3000 µg/mL; MIC [10]: 4000 µg/mL; MIC [11]: 8000 µg/mL
Sorbitan caprylate [Velsan SC] | F | F | F | F | A | A | F | F | B | B | A | B | –
CCCCCCCC(=O)NO [CHA, Caprylhydroxamic acid] | B | F | A | A | A | F | B | A | A | A | B | B | Challenge test, criteria obtained over all test organisms ([12]; Example 2A, pH 5, Velsan Flex 1.35%, CHA 0.15%): B; Challenge test result P.a. ([13]; pH 5): A; Challenge test result P.a. ([13]; pH 7): A; Challenge test result S.a. ([14]; pH 5): A; Challenge test result S.a. ([14]; pH 7): B; Challenge test result A.b. ([15]; pH 5): A; Challenge test result A.b. ([15]; pH 7): A; Challenge test result C.a. ([16]; pH 5): A; Challenge test result C.a. ([16]; pH 7): A; Challenge test result E.c. ([17]; pH 5): B; Challenge test result E.c. ([17]; pH 7): B
